Measurements taken from US5114920A, “BU-3292T antibiotics” (priority 1988, dated 1992).
≈ marks a conversion by molar mass, not a printed value. Starred links: 1 amine or outer side, 2 acyl side, 3 side chain; linkers in the order of their positions; H or OH if unused. Positions of bridges follow the written chain, without caps; N, C: chain ends. Non-standard residues stand in square brackets, D forms with d. Residues, ends and D or L forms follow the SMILES beside them. Chains are numbered I, II in the order given. Actinocin(9to1) = Cc1c2oc3c(C)ccc(C(=O)[*:1])c3nc-2c(C(=O)[*:2])c(N)c1=O; NMeV = CN[C@H](C(=O)O)C(C)C; Sar = CNCC(=O)O

Tests used:
[1] = test system: B16-F10 (murine melanoma) cells; test: In vitro cytotoxicity, neutral red staining; assay type: cell-based; conditions: B16-F10; 72 hours
Experimental: (§1) BU-3292T components A and B were tested for in vitro cytotoxicity against murine and human tumor cells and for in vivo antitumor activity in mice. Actinomycin D was used as a reference compound in both in vitro and in vivo experiments. B16-F10 (murine melanoma) and Moser (human colorectal carcinoma) cells were grown to the logarithmic phase in enriched Eagle minimum essential medium (MEM) supplemented with fetal calf serum (FCS, 10%) and kanamycin (60 mcg/ml), harvested and inoculated into wells of a 96-well microtiter plate with test materials at the concentrations of 3.0×10^4 and 6.0×10^4 cells/ml, respectively. They were incubated at 37° C. in humidified atmosphere of 5% CO2 and 95% air for 72 hours. The cytotoxic activity was determined colorimetrically at 540 nm after staining viable cells with neutral red. […] Inhibitory effects of BU-3292T component A on macromolecule (DNA, RNA and protein) synthesis were determined in vitro. Cultured L1210 murine leukemia cells (5×10^5 cells/ml) were incubated with test materials at 37° C. for 15 minutes and then further incubated for 60 minutes after the addition of labelled precursor, ^3 H-thymidine, ^14 C-uridine or ^3 H-leucine, into the cultured mixtures. After washing with chilled 5% trichloroacetic acid solution, the radioactivity incorporated into the acid-insoluble fraction of the tumor cells was determined in a liquid scintillation counter. […] In vivo antitumor activities of BU-3292T components A and B were tested in tumor-bearing female CDF mice. After the intraperitoneal implantation of diluted ascitic fluid with 1.0 ×10^6 lymphocytic leukemia P388 cells into the mice, test compounds were administered intraperitoneally once a day on days 1, 2 and 3 (QD×3).

[2] = test system: Moser (human colorectal carcinoma) cells; test: In vitro cytotoxicity, neutral red staining; assay type: cell-based; conditions: 72 hours
Experimental: as §1

[3] = Body weight change in P388-bearing mice; conditions: QD × 3, ip
Experimental: as §1

[4] = test system: lymphocytic leukemia P388; test: Antitumor activity against P388 leukemia (ip); assay type: in vivo, mice; conditions: QD × 3, ip
Experimental: as §1

[5] = test system: Protein synthesis in L1210 leukemia cells; test: Inhibition of macromolecule synthesis, 3H-leucine incorporation; assay type: cell-based, murine; conditions: L1210 leukemia cells; 3H-leucine
Experimental: as §1

[6] = test system: RNA synthesis in L1210 leukemia cells; test: Inhibition of macromolecule synthesis, 14C-uridine incorporation; assay type: cell-based, murine; conditions: L1210 leukemia cells; 14C-uridine
Experimental: as §1

[7] = test system: Clostridium perfringens A9635; assay type: cell-based; conditions: GAM agar
[8] = test system: Pseudomonas aeruginosa A9930; test: Antimicrobial activity, serial two-fold agar dilution method; assay type: cell-based; conditions: Nutrient agar
Experimental: (§2) The antimicrobial activity of BU-3292T A and B was determined against aerobic and anaerobic bacteria and fungi by a serial two-fold agar dilution method. BU-3292T A and B are active against aerobic gram-positive bacteria, and weakly active against anaerobic gram-negative bacteria and fungi.

Escherichia coli NIHJ = test: as above; assay type: cell-based; conditions: Nutrient agar
Experimental: as §2

[9] = test system: Staphylococcus aureus 209P; test: as above; assay type: cell-based; conditions: Nutrient agar
Experimental: as §2

Micrococcus luteus 1001 = test: as above; assay type: cell-based; conditions: Nutrient agar
Experimental: as §2

[10] = test system: Fusarium moniliforme A2284; test: as above; assay type: cell-based; conditions: Sabouraud dextrose agar
Experimental: as §2

[11] = test system: Clostridium difficile A21675; test: as above; assay type: cell-based; conditions: GAM agar
Experimental: as §2

[12] = test system: Propionibacterium anaerobius A21905; test: as above; assay type: cell-based; conditions: GAM agar
Experimental: as §2

[13] = test system: Bacteroides fragilis A22693; test: as above; assay type: cell-based; conditions: GAM agar
Experimental: as §2

[14] = test system: Candida albicans IAM 4888; test: as above; assay type: cell-based; conditions: Sabouraud dextrose agar
Experimental: as §2

[15] = test system: Aspergillus fumigatus IAM 2530; test: as above; assay type: cell-based; conditions: Sabouraud dextrose agar
Experimental: as §2

[16] = test system: Klebsiella pneumoniae D11; test: as above; assay type: cell-based; conditions: Nutrient agar
Experimental: as §2

Proteus mirabilis A9554 = test: as above; assay type: cell-based; conditions: Nutrient agar
Experimental: as §2

Proteus vulgalis A9436 = test: as above; assay type: cell-based; conditions: Nutrient agar
Experimental: as §2

[17] = test system: Cryptococcus neoformans IAM 4519; test: as above; assay type: cell-based; conditions: Sabouraud dextrose agar
Experimental: as §2

[18] = test system: Staphylococcus aureus smith; test: as above; assay type: cell-based; conditions: Nutrient agar
Experimental: as §2

Mucor spinosus IFO 5317 = test: as above; assay type: cell-based
Experimental: as §2

[19] = test system: Bacillus subtilis PCI-219; test: as above; assay type: cell-based; conditions: Nutrient agar
Experimental: as §2

[20] = test system: Streptococcus pyogenes A20201; test: as above; assay type: cell-based; conditions: Nutrient agar
Experimental: as §2

[21] = test system: Streptococcus faecalis A9612; test: as above; assay type: cell-based; conditions: Nutrient agar
Experimental: as §2

[22] = test system: Propionibacterium acnes A21933; test: as above; assay type: cell-based; conditions: GAM agar
Experimental: as §2

[23] = test system: Staphylococcus epidermidis D153; test: as above; assay type: cell-based; conditions: Nutrient agar
Experimental: as §2

[24] = test system: Trichophyton mentagrophytes D155; test: as above; assay type: cell-based; conditions: Sabouraud dextrose agar
Experimental: as §2

[25] = test system: DNA synthesis in L1210 leukemia cells; test: Inhibition of macromolecule synthesis, 3H-thymidine incorporation; assay type: cell-based, murine
Experimental: BU-3292T components A and B were tested for in vitro cytotoxicity against murine and human tumor cells and for in vivo antitumor activity in mice. Actinomycin D was used as a reference compound in both in vitro and in vivo experiments. B16-F10 (murine melanoma) and Moser (human colorectal carcinoma) cells were grown to the logarithmic phase in enriched Eagle minimum essential medium (MEM) supplemented with fetal calf serum (FCS, 10%) and kanamycin (60 mcg/ml), harvested and inoculated into wells of a 96-well microtiter plate with test materials at the concentrations of 3.0×10^4 and 6.0×10^4 cells/ml, respectively. They were incubated at 37° C. in humidified atmosphere of 5% CO2 and 95% air for 72 hours. The cytotoxic activity was determined colorimetrically at 540 nm after staining viable cells with neutral red. […] Inhibitory effects of BU-3292T component A on macromolecule (DNA, RNA and protein) synthesis were determined in vitro. […] After washing with chilled 5% trichloroacetic acid solution, the radioactivity incorporated into the acid-insoluble fraction of the tumor cells was determined in a liquid scintillation counter. […]

Cc1c2oc3c(C)ccc(C(=O)N[C@@H]4C(=O)N[C@H](C(C)C)C(=O)N5CCC[C@H]5C(=O)N(C)CC(=O)N(C)[C@@H](C(C)C)C(=O)O[C@@H]4C)c3nc-2c(C(=O)N[C@@H]2C(=O)N[C@H](C(C)C)C(=O)N3CCC[C@H]3C(=O)N(C)CC(=O)N(C)[C@@H](C(C)C)C(=O)O[C@@H]2C)c(N)c1=O [Actinomycin D, reference compound] (I: T[dV]P[Sar][NMeV] / II: T[dV]P[Sar][NMeV]; ester I:1-I:C, II:1-II:C; linker I:N-II:N via Actinocin(9to1))
IC50 [1]: 0.002 µg/mL (≈ 0.00159 µM)
IC50 [2]: 0.9 µg/mL (≈ 0.717 µM)
Body weight change on day 4 ([3]; 0.001 mg/kg/day): +1.3 g
Body weight change on day 4 ([3]; 0.01 mg/kg/day): +1.3 g
Body weight change on day 4 ([3]; 0.03 mg/kg/day): +0.5 g
Body weight change on day 4 ([3]; 0.1 mg/kg/day): -2.0 g
Body weight change on day 4 ([3]; 0.3 mg/kg/day): -3.5 g
MST (Median survival time) ([4]; 0.001 mg/kg/day): 11.0 days
T/C ([4]; 0.001 mg/kg/day): 110%
MST (Median survival time) ([4]; 0.003 mg/kg/day): 13.5 days
T/C ([4]; 0.003 mg/kg/day): 135%
MST (Median survival time) ([4]; 0.01 mg/kg/day): 14.0 days
T/C ([4]; 0.01 mg/kg/day): 140%
MST (Median survival time) ([4]; 0.03 mg/kg/day): 15.0 days
T/C ([4]; 0.03 mg/kg/day): 150%
MST (Median survival time) ([4]; 0.1 mg/kg/day): 16.0 days
T/C ([4]; 0.1 mg/kg/day): 160%
MST (Median survival time) ([4]; 0.3 mg/kg/day): 7.0 days
T/C ([4]; 0.3 mg/kg/day): 70%
IC50 Protein [5]: > 100 µg/mL
IC50 RNA [6]: 0.17 µg/mL (≈ 0.135 µM)
MIC [7]: 6.3 µg/mL (≈ 5.02 µM)
MIC [8]: 100 µg/mL (≈ 79.7 µM)
MIC (Escherichia coli NIHJ): > 100 µg/mL
MIC [9]: 0.4 µg/mL (≈ 0.319 µM)
MIC (Micrococcus luteus 1001): 0.2 µg/mL (≈ 0.159 µM)
MIC [10]: > 100 µg/mL
MIC [11]: 25 µg/mL (≈ 19.9 µM)
MIC [12]: 1.6 µg/mL (≈ 1.27 µM)
MIC [13]: > 100 µg/mL
MIC [14]: > 100 µg/mL
MIC [15]: > 100 µg/mL
MIC [16]: 25 µg/mL (≈ 19.9 µM)
MIC (Proteus mirabilis A9554): > 100 µg/mL
MIC (Proteus vulgalis A9436): > 100 µg/mL
MIC [17]: > 100 µg/mL
MIC [18]: 0.4 µg/mL (≈ 0.319 µM)
MIC (Mucor spinosus IFO 5317; Mucor spinosus IFO 5317, Sabouraud dextrose agar): > 100 µg/mL
MIC (Mucor spinosus IFO 5317; in vitro against Mucor spinosus IF05317): > 100 µg/mL
MIC [19]: 0.2 µg/mL (≈ 0.159 µM)
MIC [20]: 0.2 µg/mL (≈ 0.159 µM)
MIC [21]: 0.1 µg/mL (≈ 0.0797 µM)
MIC [22]: 6.3 µg/mL (≈ 5.02 µM)
MIC [23]: 0.4 µg/mL (≈ 0.319 µM)
MIC [24]: > 100 µg/mL
IC50 DNA [25]: 8.1 µg/mL (≈ 6.45 µM)
